Results on 44 compounds are retold here after US11040954B1, “CXCR3 receptor agonists” (RECEPTOS LLC, priority 2016, dated 2021).

Some results are limits rather than exact numbers.

This experiment addresses T1, CXCR3 (Homo sapiens, UniProt P49682).
T1 construct: host or cells: CHO-K1 (cAMP Hunter CHOK1 CXCR3 Gi cell line)
T1 sequence (P49682 1-368): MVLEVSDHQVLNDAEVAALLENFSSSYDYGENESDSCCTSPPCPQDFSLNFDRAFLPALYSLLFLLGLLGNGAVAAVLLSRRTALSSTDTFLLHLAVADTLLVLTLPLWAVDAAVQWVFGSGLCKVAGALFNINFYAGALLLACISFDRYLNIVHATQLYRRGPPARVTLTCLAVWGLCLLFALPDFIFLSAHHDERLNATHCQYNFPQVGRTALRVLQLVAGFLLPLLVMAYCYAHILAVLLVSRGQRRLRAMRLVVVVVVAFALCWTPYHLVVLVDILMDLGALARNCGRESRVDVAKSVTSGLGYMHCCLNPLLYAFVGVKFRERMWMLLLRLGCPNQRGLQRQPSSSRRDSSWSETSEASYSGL
In words: CXCR3 cAMP agonist assay (cAMP Hunter CHOK1 CXCR3 Gi cell line, forskolin-stimulated, HitHunter cAMP detection). In kind it is cell-based. The note with it: cAMP Hunter CHOK1 CXCR3 Gi cells, 20 μM forskolin, 30 minutes; read-out: Activity (CXCR3 cAMP agonist assay compound EC50). The essentials: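 Agonist activity was measured as suppression of forskolin (20 μM)-induced cAMP, read by luminescent enzyme-fragment complementation with a cAMP standard curve and CXCL11 defining full efficacy. Assay used 50,000 CXCR3 Gi CHOK1 cells/well in pH 7.4 HEPES-buffered HBSS with 0.1% BSA, compound 0-10 μM over 12 points, 30 min incubation.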
Take `CCNCC[C@H](NC(=O)[C@@H]1Cc2ccccc2CN1C(=O)CCC(=O)c1ccccc1)C(=O)Nc1ccc(Cl)c(C)c1` [Compound 8-4]: the EC50 (in general, the concentration giving half of the maximal effect) was below 50 nM.

On to `Cc1cccc(NC(=O)C2(NC(=O)[C@@H]3Cc4ccccc4CN3C(=O)CCC(=O)c3ccccc3)CCNCC2)c1F` [Compound 13-3], for which the EC50 was 50 to 250 nM.

As for `NCC[C@H](NC(=O)[C@@H]1Cc2ccccc2CN1C(=O)CCC(=O)c1ccccc1)C(=O)Nc1cc(Cl)ccc1F` [Compound 2-37], the EC50 fell in the range of 50 to 250 nM.

For the compound `COc1cc(C(F)(F)F)c(C)cc1NC(=O)[C@H](CCN)NC(=O)[C@@H]1Cc2ccccc2CN1C(=O)CCC(=O)c1ccccc1` [Compound 2-76], the EC50 was 50 to 250 nM.

With `Cc1cc(NC(=O)[C@H](CCN)NC(=O)[C@@H]2Cc3ccccc3CN2C(=O)CCC(=O)N2CC(C(C)(C)C)C2)ccc1Cl` [Compound 12-40], the EC50 is below 50 nM.

For the compound `CCc1c(NC(=O)[C@H](CCN)NC(=O)[C@@H]2Cc3ccccc3CN2C(=O)CCC(=O)c2ccccc2)ccc(Cl)c1Cl` [Compound 2-48], the EC50 is 50 to 250 nM.

As to `NCC[C@H](NC(=O)[C@@H]1Cc2ccccc2CN1C(=O)CCC(=O)c1ccccc1)C(=O)Nc1ccc2ncccc2c1` [Compound 2-43], the EC50 lay in the range of 50 to 250 nM.

For `NCCCC[C@H](NC(=O)[C@@H]1Cc2ccccc2CN1C(=O)CCC(=O)c1ccccc1)C(=O)Nc1ccc(Cl)c(Cl)c1` [Compound 1-1, (S)—N—((S)-6-amino-1-((3,4-dichlorophenyl)amino)-1-oxohexan-2-yl)-2-(4-oxo-4-phenylbutanoyl)-1,2,3,4-tetrahydroisoquinoline-3-carboxamide], the EC50 was 50 to 250 nM.

Take `NCC[C@H](NC(=O)[C@@H]1Cc2ccccc2CN1C(=O)CCC(=O)N1CC2CCCCC2C1)C(=O)Nc1ccc(Cl)c(Cl)c1F` (some centres unmarked) [Compound 15-54]: the EC50 is below 50 nM.

With `Cc1cc(NC(=O)[C@H](CCN)NC(=O)[C@@H]2Cc3ccccc3CN2C(=O)CCC(=O)N2[C@@H](C)CCC[C@@H]2C)ccc1Cl` [Compound 12-142], the EC50 is below 50 nM.

As to `Cc1cc(NC(=O)[C@H](CCN)NC(=O)[C@@H]2Cc3ccccc3CN2C(=O)CCC(=O)Nc2ccccc2)ccc1Cl` [Compound 12-81], the EC50 was below 50 nM.

On to `Cc1cc(NC(=O)C(CC2CCNCC2)NC(=O)[C@@H]2Cc3ccccc3CN2C(=O)CCC(=O)c2ccccc2)ccc1Cl` (mixture of isomers) [Compound 4-11], for which the EC50 was 50 to 250 nM.

Consider `Cc1cnc(NC(=O)[C@H](CCN)NC(=O)[C@@H]2Cc3ccccc3CN2C(=O)CCC(=O)c2ccccc2)cc1Cl` [Compound 27-1, (S)—N—((S)-4-amino-1-((4-chloro-5-methylpyridin-2-yl)amino)-1-oxobutan-2-yl)-2-(4-oxo-4-phenylbutanoyl)-1,2,3,4-tetrahydroisoquinoline-3-carboxamide], for which the EC50 was below 50 nM.

As for `O=C(CCC(=O)N1Cc2ccccc2CC1C(=O)NC(CCN1CCC(F)CC1)C(=O)Nc1ccc2c(c1)CCC2)c1ccccc1` (racemic) [Compound 23-1, N-(1-((2,3-dihydro-1H-inden-5-yl)amino)-4-(4-fluoropiperidin-1-yl)-1-oxobutan-2-yl)-2-(4-oxo-4-phenylbutanoyl)-1,2,3,4-tetrahydroisoquinoline-3-carboxamide], the EC50 was above 500 nM.

For `CC1(C)CCCCN1C(=O)CCC(=O)N1Cc2ccccc2C[C@H]1C(=O)N[C@@H](CCN1CCC(O)CC1)C(=O)Nc1ccc(Cl)c(Cl)c1F` [Compound 26-1, (S)—N—((S)-1-((3,4-dichloro-2-fluorophenyl)amino)-4-(4-hydroxypiperidin-1-yl)-1-oxobutan-2-yl)-2-(4-(2,2-dimethylpiperidin-1-yl)-4-oxobutanoyl)-1,2,3,4-tetrahydroisoquinoline-3-carboxamide], the EC50 was below 50 nM.

`Cc1cc(NC(=O)[C@H](CCN)NC(=O)[C@@H]2Cc3ccccc3CN2C(=O)CCC(=O)N2CCN(C)c3ccccc32)ccc1Cl` [Compound 12-140]: the EC50 is below 50 nM.

For the compound `Cc1cc(NC(=O)[C@H](CCN)NC(=O)[C@@H]2Cc3ccccc3CN2C(=O)CCC(=O)N2C(C)CCC2C)ccc1Cl` (some centres unmarked) [Compound 12-47], the EC50 is below 50 nM.

For `COCCN(C)C(=O)CCC(=O)N1Cc2ccccc2C[C@H]1C(=O)N[C@@H](CCN)C(=O)Nc1ccc(Cl)c(C)c1` [Compound 12-113], the EC50 was 250 to 500 nM.

As for `NCC[C@H](NC(=O)[C@@H]1Cc2ccccc2CN1C(=O)CCC(=O)c1ccccc1)C(=O)Nc1ccc(Cl)c(C(F)(F)F)c1` [Compound 2-4], the EC50 lay within 50 to 250 nM.

`Cc1cc(NC(=O)[C@H](CCCCN)NC(=O)[C@@H]2Cc3ccccc3CN2C(=O)CCC(=O)c2cccc(N(C)C)c2)ccc1Cl` [Compound 7-6]: the EC50 is 50 to 250 nM.

Regarding `Cc1cc(NC(=O)[C@H](CCN)NC(=O)[C@@H]2Cc3ccccc3CN2C(=O)CCC(=O)N2CCCC3(CCC3)C2)ccc1Cl` [Compound 12-78], the EC50 is below 50 nM.

For the compound `CS(=O)(=O)C1CCN(C(=O)CCC(=O)N2Cc3ccccc3C[C@H]2C(=O)N[C@@H](CCN)C(=O)Nc2ccc(Cl)c(Cl)c2F)CC1` [Compound 15-13], the EC50 was above 500 nM.

With `NCC[C@H](NC(=O)[C@@H]1Cc2ccccc2CN1C(=O)CCC(=O)c1ccccc1)C(=O)Nc1ccc(Cl)c(F)c1` [Compound 2-12], the EC50 fell in the range of 250 to 500 nM.

As to `NCCCC[C@H](NC(=O)[C@@H]1Cc2ccccc2CN1C(=O)CCC(=O)c1ccccc1)C(=O)Nc1ccc(Cl)cc1F` [Compound 1-23], the EC50 is 50 to 250 nM.

As to `Cc1cc(Cl)ccc1NC(=O)[C@H](CCCCN)NC(=O)[C@@H]1Cc2ccccc2CN1C(=O)CCC(=O)c1ccccc1` [Compound 1-24], the EC50 lay within 50 to 250 nM.

Turning to `Cc1cc(NC(=O)[C@H](CCN)NC(=O)[C@@H]2Cc3ccccc3CN2C(=O)CCC(=O)NCCC(C)(C)C)ccc1Cl` [Compound 12-2], the EC50 is below 50 nM.

`Cc1cc(NC(=O)C(NC(=O)[C@@H]2Cc3ccccc3CN2C(=O)CCC(=O)c2ccccc2)C2CC[N+](C)(C)CC2)ccc1Cl` (mixture of isomers) [Compound 6-6]: the EC50 was below 50 nM.

Regarding `Cc1cc(NC(=O)[C@H](CCN)NC(=O)[C@@H]2Cc3ccccc3CN2C(=O)CCC(=O)N2CC3CCC2C3)ccc1Cl` (some centres unmarked) [Compound 12-32], the EC50 is below 50 nM.

On to `Cc1cc(NC(=O)[C@H](CCN)NC(=O)[C@@H]2Cc3ccccc3CN2C(=O)CCC(=O)N2CCN(C)[C@@H](C)C2)ccc1Cl` [Compound 12-36], for which the EC50 is below 50 nM.

As for `Cc1cc(NC(=O)C(CC2CCN(C)CC2)NC(=O)[C@@H]2Cc3ccccc3CN2C(=O)CCC(=O)c2ccccc2)ccc1Cl` (mixture of isomers) [Compound 6-1, (S)—N—((S)-1-((4-chloro-3-methylphenyl)amino)-3-(1-methylpiperidin-4-yl)-1-oxopropan-2-yl)-2-(4-oxo-4-phenylbutanoyl)-1,2,3,4-tetrahydroisoquinoline-3-carboxamide], the EC50 lay in the range of 50 to 250 nM.

Regarding `Cc1cc(NC(=O)[C@H](CCN)NC(=O)[C@@H]2Cc3ccccc3CN2C(=O)CCC(=O)N2CC3(COC3)C2)ccc1Cl` [Compound 12-9], the EC50 was above 500 nM.

Turning to `NCC[C@H](NC(=O)[C@@H]1Cc2ccccc2CN1C(=O)CCC(=O)c1ccccc1)C(=O)Nc1cc2c(cc1F)CCC2` [Compound 2-78], the EC50 was below 50 nM.

Consider `NCC[C@H](NC(=O)[C@@H]1Cc2ccccc2CN1C(=O)CCC(=O)c1ccccc1)C(=O)Nc1ccc2ncsc2c1` [Compound 2-65], for which the EC50 was 50 to 250 nM.

Regarding `Cc1cc(NC(=O)[C@H](CCN)NC(=O)[C@@H]2Cc3ccccc3CN2C(=O)CCC(=O)N2CC3CCCCC3C2)ccc1Cl` (some centres unmarked) [Compound 12-55], the EC50 is below 50 nM.

On to `Cc1c(Cl)ccc(NC(=O)[C@H](CCN)NC(=O)[C@@H]2Cc3ccccc3CN2C(=O)CCC(=O)N2CCCC(C)(C)C2)c1Cl` [Compound 15-50], for which the EC50 is below 50 nM.

For the compound `NCC[C@H](NC(=O)[C@@H]1Cc2ccccc2CN1C(=O)CCC(=O)N1CCC2(CCC2)C1)C(=O)Nc1ccc(Cl)c(Cl)c1F` [Compound 15-33], the EC50 is below 50 nM.

For the compound `Cc1cc(NC(=O)[C@H](CCN)NC(=O)[C@@H]2Cc3ccccc3CN2C(=O)CCC(=O)N2CCCOCC2)ccc1Cl` [Compound 12-20], the EC50 is below 50 nM.

Take `Cc1cc(NC(=O)[C@H](CCN)NC(=O)[C@@H]2Cc3ccccc3CN2C(=O)CCC(=O)N2CCC(F)(F)C2)ccc1Cl` [Compound 12-8]: the EC50 was 50 to 250 nM.

For the compound `Cc1cc(NC(=O)[C@H](CCCNC(C)C)NC(=O)[C@@H]2Cc3ccccc3CN2C(=O)CCC(=O)c2ccccc2)ccc1Cl` [Compound 8-5], the EC50 was below 50 nM.

In the case of `Cc1cc(NC(=O)[C@H](Cc2ccccn2)NC(=O)[C@@H]2Cc3ccccc3CN2C(=O)CCC(=O)c2ccccc2)ccc1Cl` [Compound 3-5], the EC50 is 50 to 250 nM.

As for `COc1c(NC(=O)[C@H](CCN)NC(=O)[C@@H]2Cc3ccccc3CN2C(=O)CCC(=O)c2ccccc2)ccc(Cl)c1Cl` [Compound 14-27], the EC50 was above 500 nM.

Turning to `Cc1ccc(NC(=O)[C@H](CCCCN)NC(=O)[C@@H]2Cc3ccccc3CN2C(=O)CCC(=O)c2ccccc2)cc1` [Compound 1-3], the EC50 was in the range of 50 to 250 nM.

As for `Cc1cc(NC(=O)[C@H](CCN)NC(=O)[C@@H]2Cc3ccccc3CN2C(=O)CCC(=O)NCC2CCCC2)ccc1Cl` [Compound 12-10], the EC50 lay within 50 to 250 nM.

`CC(C)CC1CCCCN1C(=O)CCC(=O)N1Cc2ccccc2C[C@H]1C(=O)N[C@@H](CCN)C(=O)Nc1ccc(Cl)c(Cl)c1F` (some centres unmarked) [Compound 15-20]: the EC50 was below 50 nM.
